What all share (assay type): in vivo
The test system of experiment [1] is NF-κB/IκBα protein complex. Briefly: Immunoblotting and immunohistochemistry of NF-κB/IκBα in ICH rat brain. An excerpt: All animals received humane care in compliance with the institute's guidelines as outlined in “Guide for the Care and Use of Laboratory Animals” prepared by the National Academy of Sciences and published by the National Institutes of Health (NIH publication no. 86-23, revised 1985). Female Sprague-Dawley rats (250-300 grams (g); Harlan Sprague-Dawley, Inc., Indianapolis, Ind.) were anesthesized with an intramuscular injection of a mixture of ketamine and xylazine and set in supine in a Kopf headholder. The right carotid artery, external and internal branches, was exposed and the distal end of the external carotid freed and retracted to line with the internal carotid. A PE-10 polyethylene tube (Becton-Dickinson, Sparks, Md.) was then introduced from the external into the internal carotid artery, and the former was ligated to hold the tube. TUDCA (Calbiochem-Novabiochem Corp., San Diego, Calif.) was dissolved in phosphate buffer, pH 7.4 at 400 milligrams per milliliter (mg/ml). Saline or TUDCA solution (1 milliliter per kilogram body weight (ml/kg bw)) were injected directly into the internal carotid artery, within 5 minutes. […]
Bcl-2 family, NF-κB, IκB, p-Akt, and p-Bad protein levels were determined from total protein homogenates separated by 12% sodium dodecyl sulfate polyacrylamide gel electrophoresis (SDS-PAGE). […]
A general note: A western blot detects proteins with antibodies after separation by electrophoresis.

In experiment [2] the test system is collagenase-induced intrastriatal hemorrhage (ICH). Briefly: Hematoma (hemorrhagic lesion) volume in collagenase-induced ICH rat model. As to conditions: for Protection (%) ICH core / Protection (%) Peri-ICH: mean ± SEM. An excerpt: All animals received humane care in compliance with the institute's guidelines as outlined in “Guide for the Care and Use of Laboratory Animals” prepared by the National Academy of Sciences and published by the National Institutes of Health (NIH publication no. 86-23, revised 1985). Female Sprague-Dawley rats (250-300 grams (g); Harlan Sprague-Dawley, Inc., Indianapolis, Ind.) were anesthesized with an intramuscular injection of a mixture of ketamine and xylazine and set in supine in a Kopf headholder. The right carotid artery, external and internal branches, was exposed and the distal end of the external carotid freed and retracted to line with the internal carotid. A PE-10 polyethylene tube (Becton-Dickinson, Sparks, Md.) was then introduced from the external into the internal carotid artery, and the former was ligated to hold the tube. TUDCA (Calbiochem-Novabiochem Corp., San Diego, Calif.) was dissolved in phosphate buffer, pH 7.4 at […] milligrams per milliliter (mg/ml). Saline or TUDCA solution (1 milliliter per kilogram body weight (ml/kg bw)) were injected directly into the internal carotid artery, within 5 minutes. Different concentrations of TUDCA (10, 50, 100, and 200 mg/kg bw) were administered 1 hour prior to, or 1, 3, and 6 hours after collagenase injection. The polyethylene tube was finally removed, the end of the external carotid artery cauterized, and the wound closed. To induce stroke injury, the animals were placed in a stereotaxic apparatus and ICH induced by collagenase infusion (Rosenberg et al., Stroke 1990;21:801-807 and Chesney et al., Stroke 1995;26:312-316). In brief, a midline incision was made through the scalp to expose the skull. […] (0.5 microliters per minute (μL/min)) of saline containing 0.5 unit (U) bacterial collagenase (type VII; Sigma Chemical Co., St. Louis, Mo.) was made stereotaxically into the striatum with a 10-μl Hamilton syringe at the following coordinates: 0.4 millimeter (mm) anterior and 3.0 mm lateral to bregma and 5.0 mm ventral to the cortical surface. Once the infusion was complete, the Hamilton syringe was left in place for 3 minutes. Body temperature was maintained at 37° C. with a CMA/150 temperature controller throughout the surgery. The rats recovered from surgery in a cage containing food and heated by an incandescent light bulb. Neurological testing was performed at 2 days after induction of ICH. The animals were then sacrificed, and the brains removed and frozen at −70° C. for either serial cryostat sectioning, or RNA and protein extraction. In a subset of animals, serum and brain samples were collected for bile acid analysis.
After behavioral testing, rats were sacrificed and the brains removed for serial cryostat sectioning. Volumes of hemorrhagic lesion, including core and peri-ICH regions, were quantitated using unbiased stereologic volumetric analysis of 20-μm cryostat sections after staining according to the Nissl protocol. Volumetric analysis was performed according to Cavalieri's method (Howard et al, Unbiased stereology: three-dimensional measurement in microscopy. New York: BIOS Scientific Publishers Ltd 1998). The areas of lesion were determined in 11 Nissl-stained sections 20 μm in thickness, 900 μm apart, from each animal. Volumes (mm^3) were calculated according to the formula V=T×a/p×ΣPi, where V=volume of interest, T=distance between sections (mm), a/p=area associated with each point (mm^2), and Pi=points hitting object in each section.

In another experiment the test system is caspase-3-like proteases. Briefly: DEVD-specific caspase activity in ICH rat brain tissue. From the text: All animals received humane care in compliance with the institute's guidelines as outlined in “Guide for the Care and Use of Laboratory Animals” prepared by the National Academy of Sciences and published by the National Institutes of Health (NIH publication no. 86-23, revised 1985). Female Sprague-Dawley rats (250-300 grams (g); Harlan Sprague-Dawley, Inc., Indianapolis, Ind.) were anesthesized with an intramuscular injection of a mixture of ketamine and xylazine and set in supine in a Kopf headholder. The right carotid artery, external and internal branches, was exposed and the distal end of the external carotid freed and retracted to line with the internal carotid. […]
Caspase activation was determined in dissected brain tissue from the ispilateral and corresponding contralateral areas. […] General caspase activity was evaluated by enzymatic cleavage of chromophore p-nitroanilide (pNA) from the substrate N-acetyl-Asp-Glu-Val-Asp-pNA (DEVD-pNA; Sigma Chemical Co.). […] The reaction mixtures were incubated at 37° C. for 1 hour, and the formation of pNA was measured at 405 nm using a 96-well plate reader. Protein concentrations were determined using the Bio-Rad protein assay kit (Bio-Rad Laboratories, Hercules, Calif.) according to the manufacturer's specifications.

Where [3] appears, read: 100 mg/kg bw TUDCA administered at 1 h.
[4] abbreviates: 100 mg/kg bw TUDCA administered at 3 h.
Where [5] appears, read: 100 mg/kg bw TUDCA administered at 6 h.

Consider 1 molecule from patent US20060135494A1, “Methods of treating injuries of the nervous system associated with hemorrhage” (priority 2002, published 2006).

As for `C[C@H](CCC(=O)NCCS(=O)(=O)O)[C@H]1CC[C@H]2[C@@H]3[C@@H](O)C[C@@H]4C[C@H](O)CC[C@]4(C)[C@H]3CC[C@]12C` [TUDCA, tauroursodeoxycholic acid], the “NF-κB activation in the peri-ICH region (immunohistochemistry, words)” value in experiment [1] (100 mg/kg bw TUDCA, 2 days after ICH) is recorded as “markedly decreased”. The “IκBα protein level (Western blot, words)” value in experiment [1] (increasing doses of TUDCA (10-200 mg/kg bw) 1 hour before collagenase, ipsilateral hemisphere) is “largely restored”. In experiment [2] (100 mg/kg bw TUDCA 1 hour before collagenase, 2 days), the “hemorrhagic lesions larger in vehicle-injected group compared with TUDCA-treated rats” value is listed as “approximately 50%”. The “protective effect on volume of brain lesioned” value is on record as 40-50% in experiment [2] (100 mg/kg bw TUDCA 1 hour before or up to 3 hours after hemorrhage, 2 days) and “partially lost but still evident” in experiment [2] (100 mg/kg bw TUDCA 6 hours after collagenase infusion). Also, the results for the “Protection (%) ICH core” value in experiment [2] (setting [3]), in experiment [2] (setting [4]) and in experiment [2] (setting [5]) were 47.7 ± 3.2 %, 30.0 ± 18.9 % and 20.9 ± 12.9%, respectively. Besides, the “Protection (%) Peri-ICH” value is 48.6 ± 3.5 % in experiment [2] (setting [3]), 42.8 ± 14.9 % in experiment [2] (setting [4]) and 38.7 ± 12.9 % in experiment [2] (setting [5]). The hemorrhagic lesion volume in experiment [2] (100 mg/kg bw TUDCA into internal carotid artery 1 hour before collagenase, 2 days after infusion, mean±SEM) stood at 143.9±46.5 mm^3. In experiment [2] (200 mg/kg bw TUDCA 1 hour before collagenase, 2 days), the “reduction in lesion volume” value is ~60%. Moreover, the “protection of lesion volume” value in experiment [2] (10 and 50 mg/kg bw dose regimens, 1 hour before collagenase) is on record as “significantly less protective”. Also, the “caspase activity versus vehicle-injected animals” value in the experiment on caspase-3-like proteases (100 mg/kg bw TUDCA, time-course 1 hour before to 6 hours after collagenase) was “remained markedly lower”. Also, the “reduction of caspase activation in the lesioned hemisphere” value in the experiment with caspase-3-like proteases (100 and 200 mg/kg bw TUDCA 1 hour before collagenase) is recorded as 45-60%.
